Test results from patent publication US10988455B2, “1,2,4-triazine-4-amine derivatives” (Heptares Therapeutics Limited, priority 2010, dated 2021).

Experiments:
[1] = target: human adenosine A1 receptor (Homo sapiens (Human), UniProt P30542); assay: CHO-hA1 [3H]DPCPX binding assay (Test A); conditions: CHO membranes, 1 nM [3H]DPCPX, 25° C., 1 h; for Ki: read-out: pKi A1 (converted)
Method: (§1) All test compounds were prepared as a stock solution of 10 mM in 100% DMSO.

[2] = target: human adenosine A2a receptor (Homo sapiens (Human), UniProt P29274); assay: HEK293-hA2a [3H]-ZM241385 binding assay (Test A); conditions: HEK293 membranes, 1 nM [3H]ZM241385, 25° C., 1 h
Method: as §1

[3] = test system: haloperidol-induced catalepsy in rats; assay: Catalepsy reversal test (Test B); format: in vivo, Sprague-Dawley rats; conditions: for reversal of cataleptic behavior in rats pre-treated with haloperidol: dose of 1 mg/kg p.o.
Method: The dopamine D2 receptor antagonist, haloperidol, induces Parkinsonism in humans and induces motor effects in rats such as catalepsy. There is considerable evidence that adenosine A2A receptor antagonists reverse haloperidol-induced motor effects in preclinical studies. […] The present study determines the ability of haloperidol-induced catalepsy in rats to be reversed by novel A2A receptor antagonists.
Haloperidol (0.82 mg/kg, i.p.; 150 min pre-test time) induces significant cataleptic behaviour in rats (average score 3.1). The effect of selected compounds of the invention (2-10 mg/kg or 0.3-3 mg/kg, p.o.; 120 min pre-test time) on catalepsy was established by administration of said compounds to rats pre-treated with haloperidol as described above.
Details of a similar test may be found in, for example, Hodgson et al., J. Pharmacol. Exp. Ther. 330, 2009.

Chain of human adenosine A1 receptor (P30542 whole entry): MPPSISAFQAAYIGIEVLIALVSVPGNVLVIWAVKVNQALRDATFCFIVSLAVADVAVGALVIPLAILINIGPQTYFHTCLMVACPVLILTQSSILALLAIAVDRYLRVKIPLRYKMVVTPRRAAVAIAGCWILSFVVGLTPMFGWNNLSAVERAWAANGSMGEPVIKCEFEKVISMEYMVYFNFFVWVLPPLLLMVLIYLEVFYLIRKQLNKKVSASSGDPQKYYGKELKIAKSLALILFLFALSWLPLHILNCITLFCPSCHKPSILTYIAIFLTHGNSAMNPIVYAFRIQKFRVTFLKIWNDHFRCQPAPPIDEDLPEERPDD
Chain of human adenosine A2a receptor (P29274 whole entry): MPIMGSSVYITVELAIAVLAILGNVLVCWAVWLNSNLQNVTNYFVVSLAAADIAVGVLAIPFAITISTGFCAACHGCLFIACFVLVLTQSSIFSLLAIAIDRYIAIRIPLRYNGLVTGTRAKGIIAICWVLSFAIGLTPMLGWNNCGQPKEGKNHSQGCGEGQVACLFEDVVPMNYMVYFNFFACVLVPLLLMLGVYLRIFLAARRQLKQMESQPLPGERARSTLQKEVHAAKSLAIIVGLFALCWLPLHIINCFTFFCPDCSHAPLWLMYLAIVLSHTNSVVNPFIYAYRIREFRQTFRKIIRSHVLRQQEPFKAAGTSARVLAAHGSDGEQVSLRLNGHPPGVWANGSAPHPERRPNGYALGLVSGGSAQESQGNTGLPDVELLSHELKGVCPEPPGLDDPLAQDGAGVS

pKi A1 [1]	pKi A2a [2]	Structure (SMILES)	other results
7.68	8.66	Cc1cc(-c2nnc(N)nc2-c2ccccc2)cc(Br)n1 [1(ccxii)]	reversal of cataleptic behavior in rats pre-treated with haloperidol ([3]; 120 min pre-test time): statistically significant
7.07	7.81	Cc1cc(-c2nnc(N)nc2-c2ccc(Cl)cc2)cc(C)n1 [1(clix)]	reversal of cataleptic behavior in rats pre-treated with haloperidol ([3]; 120 min pre-test time): statistically significant
6.99	8.40	Nc1nnc(-c2cc(Cl)nc(C(F)(F)F)c2)c(-c2ccc(F)cc2)n1 [1(clxix)]	reversal of cataleptic behavior in rats pre-treated with haloperidol ([3]; 120 min pre-test time): statistically significant
7.52	8.62	Cc1cc(-c2nnc(N)nc2-c2ccccc2)cc(C(F)F)n1 [1(clxxix)]	reversal of cataleptic behavior in rats pre-treated with haloperidol ([3]; 120 min pre-test time): statistically significant
6.93	8.03	Cc1cc(-c2nnc(N)nc2-c2ccccc2F)cc(Cl)n1 [1(clxxvi)]	
7.76	8.90	Nc1nnc(-c2cc(Cl)nc(C(F)F)c2)c(-c2ccccc2)n1 [1(clxxx)]	
7.17	8.71	Nc1nnc(-c2cc(Cl)nc(CF)c2)c(-c2ccccc2)n1 [1(clxxxi)]	
7.36	8.26	Cc1cc(-c2nnc(N)nc2-c2ccccc2F)cc(C(F)(F)F)n1 [1(cxci)]	reversal of cataleptic behavior in rats pre-treated with haloperidol ([3]; 120 min pre-test time): statistically significant
6.93		Cc1cc(-c2nnc(N)nc2-c2ccc(F)cc2)cc(C(F)(F)F)n1 [1(cxciii)]	reversal of cataleptic behavior in rats pre-treated with haloperidol ([3]; 120 min pre-test time): statistically significant
6.87	8.66	Cc1cc(Cl)cc(-c2nnc(N)nc2-c2ccccc2)c1 [1(li)]	reversal of cataleptic behavior in rats pre-treated with haloperidol ([3]; 120 min pre-test time): statistically significant
7.33	8.22	Cc1cc(-c2nnc(N)nc2-c2ccccc2)cc(Cl)n1 [1(lvi)]	reversal of cataleptic behavior in rats pre-treated with haloperidol ([3]; 120 min pre-test time): statistically significant
7.26	8.07	Cc1cc(-c2nnc(N)nc2-c2cccc(F)c2)cc(Cl)n1 [1(xc)]	reversal of cataleptic behavior in rats pre-treated with haloperidol ([3]; 120 min pre-test time): statistically significant
7.83		Cc1cc(-c2nnc(N)nc2-c2ccccc2)cc(C)c1O [1(xli)]	
8.54	7.74	Nc1nnc(-c2ccnc(Cl)c2)c(-c2ccccc2)n1 [1(xliii)]	ED50, reversal of cataleptic behaviour in rats pre-treated with haloperidol ([3]; p.o., 120 min pre-test time, haloperidol 0.82 mg/kg i.p.): 0.27 mg/kg
8.45	7.11	Nc1nnc(-c2ccc(F)c(Cl)c2)c(-c2ccccc2)n1 [1(xv), 6-(3-Chloro-4-fluorophenyl)-5-phenyl-1,2,4-triazin-3-amine]	
7.26		[2H]C([2H])([2H])c1cc(-c2nnc(N)nc2-c2ccccc2)cc(C)n1 [5(viii), 6-(2-Methyl-6-d3-methylpyridin-4-yl)-5-phenyl-1,2,4-triazin-3-amine]	
7.60		Cc1cc(-c2nnc(N)nc2-c2ccccc2)cc(C(F)(F)F)n1 [Example 1(ccix), 6-[2-methyl-6-(trifluoromethyl)pyridin-4-yl]-5-phenyl-1,2,4-triazin-3-amine]	reversal of cataleptic behavior in rats pre-treated with haloperidol ([3]; 120 min pre-test time): statistically significant

Continued, compound first:

Structure (SMILES)	pKi A1 [1]	pKi A2a [2]	other results
Nc1nnc(-c2cc(Cl)cc(Cl)c2)c(-c2ccccn2)n1 [1(cciv)]	5.97	7.21	
CN(C)c1cc(-c2nnc(N)nc2-c2ccccc2)ccn1 [1(ccxi)]	8.74	7.71	
Cc1cc(-c2nnc(N)nc2-c2ccccc2)cc(C)[n+]1[O-] [1(ccxiii)]	7.12	7.51	
Nc1nnc(-c2cc(Cl)cc(C(F)(F)F)c2)c(-c2ncccn2)n1 [1(ccxviii)]	5.25	6.58	
Cc1cc(-c2nnc(N)nc2-c2cc(F)cc(F)c2)cc(C)n1 [1(cliv)]	6.77		reversal of cataleptic behavior in rats pre-treated with haloperidol ([3]; 120 min pre-test time): statistically significant
Nc1nnc(-c2cnn(Cc3ccccc3)c2)c(-c2ccccc2)n1 [1(cxxxiv)]	7.62	5.62	
Nc1nnc(-c2cccc(C(F)(F)F)c2)c(-c2ccccc2)n1 [1(ix), 5-Phenyl-6-[3-(trifluoromethyl)phenyl]-1,2,4-triazin-3-amine]	7.81		
Nc1nnc(-c2ccc3ccccc3c2)c(-c2ccccc2)n1 [1(lxxii)]	8.52	6.99	
Nc1nnc(-c2ccnc(C3CC3)c2)c(-c2ccccc2)n1 [1(lxxix)]	9.35	7.45	
CC1(C)C=C(c2nnc(N)nc2-c2ccccc2)CC(C)(C)O1 [1(lxxx)]	6.01	6.61	
Nc1nnc(-c2cc(Cl)cc(Cl)c2)c(-c2ccccc2)n1 [1(xiii), 6-(3,5-Dichlorophenyl)-5-phenyl-1,2,4-triazin-3-amine]			reversal of cataleptic behavior in rats pre-treated with haloperidol ([3]; 120 min pre-test time): statistically significant
Nc1nnc(-c2ccc3cc[nH]c3c2)c(-c2ccccc2)n1 [1(xviii), 6-(1H-Indol-6-yl)-5-phenyl-1,2,4-triazin-3-amine]	6.91	6.75	
COc1cc(OC)cc(-c2nnc(N)nc2-c2ccccc2)c1 [1(xxiv), 6-(3,5-Dimethoxyphenyl)-5-phenyl-1,2,4-triazin-3-amine]	8.03	6.97	
Nc1nnc(-c2ccc3occc3c2)c(-c2ccccc2)n1 [1(xxxv), 6-(1-benzofuran-5-yl)-5-phenyl-1,2,4-triazin-3-amine]	8.20	7.19	
CC1CCCN(c2nnc(N)nc2-c2ccccc2)C1 (stereo not drawn) [2(iii), 6-(3-Methylpiperidin-1-yl)-5-phenyl-1,2,4-triazin-3-amine]	5.37	7.31	
CC1CN(c2nnc(N)nc2-c2ccccc2)CC(C)O1 (stereo not drawn) [2(iv), 6-(2,6-Dimethylmorpholin-4-yl)-5-phenyl-1,2,4-triazin-3-amine]		7.79	Ki [1]: > 10000 nM

Structure (SMILES)	pKi A1 [1]	pKi A2a [2]	other results
CC1(C)CCCN(c2nnc(N)nc2-c2ccccc2)C1 [2(vi), 6-(3,3-Dimethylpiperidin-1-yl)-5-phenyl-1,2,4-triazin-3-amine]		7.39	Ki [1]: > 10000 nM
Cc1csc(Nc2nnc(N)nc2-c2ccccc2)n1 [2(xxii)]	6.71	5.07	
Nc1nnc(N2CCOC(CO)C2)c(-c2ccccc2)n1 (stereo not drawn) [2(xxv)]	7.49	5.53	
Nc1nnc(Oc2ccccc2)c(-c2ccccc2)n1 [3(i), 6-Phenoxy-5-phenyl-1,2,4-triazin-3-amine]		7.17	Ki [1]: > 10000 nM
Nc1nnc(Oc2cccc(C(F)(F)F)c2)c(-c2ccccc2)n1 [3(v), 5-Phenyl-6-[3-(trifluoromethyl)phenoxy]-1,2,4-triazin-3-amine]		5.96	
Nc1nnc(-n2ccc(=O)cc2)c(-c2ccccc2)n1 [3(xvi)]	7.15	7.41	
Cc1ncccc1Oc1nnc(N)nc1-c1ccccc1 [3(xxi)]	8.07	6.22	
Cn1nc(C(F)(F)F)cc1Oc1nnc(N)nc1-c1ccccc1 [3(xxiv)]	8.46	7.39	
Cc1ccc(Sc2nnc(N)nc2-c2ccccc2)cc1 [3(xxxii)]	7.00	5.82	
Nc1nnc(-c2cc(Cl)cc(C3CC3)c2)c(-c2ccccc2)n1 [4(ii), 6-(3-Chloro-5-cyclopropylphenyl)-5-phenyl-1,2,4-triazin-3-amine]			Ki [1]: 37.2 nM; Ki ([2]; read-out: pKi A2a (converted)): 12.9 nM
Cc1cn(-c2nnc(N)nc2-c2ccccc2)cc(C)c1=O [5(ix), 1-(3-Amino-5-phenyl-1,2,4-triazin-6-yl)-3,5-dimethylpyridin-4(1H)-one]	7.62	7.77	
CC(=O)Nc1cc(-c2nnc(N)nc2-c2ccccc2)ccc1O [5(vii), N-[5-(3-Amino-5-phenyl-1,2,4-triazin-6-yl)-2-hydroxyphenyl]acetamide]	8.69	6.73	
Cc1cc(-c2nnc(N)nc2-c2ccc(F)cc2)cc(N2CCC2)n1 [5(xi), 6-[2-(azetidin-1-yl)-6-methylpyridin-4-yl]-5-(4-fluorophenyl)-1,2,4-triazin-3-amine]	6.90	7.76	
Nc1nnc(-c2cccc(Cl)c2)c(-c2ccccc2)n1 [Example 1(vi), 6-(3-Chlorophenyl)-5-phenyl-1,2,4-triazin-3-amine]			ED50 ([3]; Rattus norvegicus, p.o., 120 min pre-test time, haloperidol 0.82 mg/kg i.p., read-out: ED50, reversal of cataleptic behaviour in rats pre-treated with haloperidol): 9.8 mg/kg
Cc1cc(-c2nnc(N)nc2-c2ccc(F)cc2)cc(Cl)n1 [Example 1(xcv), 6-(2-chloro-6-methylpyridin-4-yl)-5-(4-fluorophenyl)-1,2,4-triazin-3-amine]			reversal of cataleptic behavior in rats pre-treated with haloperidol ([3]; 120 min pre-test time): statistically significant
O=C(CCCN1CCC(O)(c2ccc(Cl)cc2)CC1)c1ccc(F)cc1 [Haloperidol, haloperidol, reference compound]			catalepsy average score (maximum score of 4) ([3]; haloperidol 0.82 mg/kg i.p., 150 min pre-test time): 3.1
